Test results as given in patent US9226501B2, “Pesticidal compositions and processes related thereto” (Dow AgroSciences LLC, priority 2012, dated 2016).

Assays:
[1] = test system: Beet Armyworm (BAW) (spodoptera exigua); assay: Bioassay on beet armyworm (BAW), 128-well diet tray assay; assay type: in vivo; details: for BAW Rating: Table 5, prophetic compounds subsequently exemplified, beet armyworm; for pest or weed control at 50 µg/cm2: Spodoptera exigua, 168 h, % mortality, second instar larvae, 50 μg/cm^2 on artificial diet, five to seven days, 25° C., read-out: BAW Rating
Protocol: (§1) Certain molecules disclosed in this document were tested against BAW, CEW and CL using procedures described in the following examples. In the reporting of the results, the “BAW & CEW & CL Rating Table” was used (See Table Section).
Bioassays on BAW were conducted using a 128-well diet tray assay. One to five second instar BAW larvae were placed in each well (3 mL) of the diet tray that had been previously filled with 1 mL of artificial diet to which 50 μg/cm^2 of the test compound (dissolved in 50 μL of 90:10 acetone-water mixture) had been applied (to each of eight wells) and then allowed to dry. Trays were covered with a clear self-adhesive cover, and held at 25° C., 14:10 light-dark for five to seven days. Percent mortality was recorded for the larvae in each well; activity in the eight wells was then averaged. The results are indicated in the tables entitled “Table 3: Assay Results Part 1” and “Table 4: Assay Results Part 2” (See Table Section).

[2] = test system: Cabbage Looper (CL) (Trichoplusia ni); assay: Bioassay on cabbage looper (CL), 128-well diet tray assay; assay type: in vivo; details: for CL Rating: Table 5, prophetic compounds subsequently exemplified, cabbage looper; for pest or weed control at 50 µg/cm2: Trichoplusia ni, 168 h, % mortality, second instar larvae, 50 μg/cm^2 on artificial diet, five to seven days, 25° C., read-out: CL Rating
Protocol: as §1
Bioassays on CL were conducted using a 128-well diet tray assay. One to five second instar CL larvae were placed in each well (3 mL) of the diet tray that had been previously filled with 1 mL of artificial diet to which 50 μg/cm^2 of the test compound (dissolved in 50 μL of 90:10 acetone-water mixture) had been applied (to each of eight wells) and then allowed to dry. Trays were covered with a clear self-adhesive cover, and held at 25° C., 14:10 light-dark for five to seven days. Percent mortality was recorded for the larvae in each well; activity in the eight wells was then averaged. The results are indicated in the table entitled “Table 4: Assay Results Part 2” (See Table Section).

Row | SMILES | BAW Rating [1] | CL Rating [2] | pest or weed control at 50 µg/cm2 [1] [%] | pest or weed control at 50 µg/cm2 [2] [%]
1 | CC(NC(=O)c1ccc(/C=C/C(c2cc(Cl)c(Cl)c(Cl)c2)C(F)(F)F)cc1Br)C(=O)NCCF (stereo not shown) [P1616A] | A (50-100) | A (50-100) |  | 
2 | Cc1cc(/C=C/C(c2cc(Cl)c(Cl)c(Cl)c2)C(F)(F)F)ccc1C(=O)NCC(=S)NCC(F)(F)F (stereo not shown) [P1560] | A (50-100) | A (50-100) |  | 
3 | O=C(CNC(=O)c1ccc(/C=C/C(c2cc(C(F)(F)F)cc(C(F)(F)F)c2)C(F)(F)F)cc1Br)NCC(F)(F)F (stereo not shown) [P1269] | A (50-100) | A (50-100) |  | 
4 | CC(C)(NC(=O)c1ccc(/C=C/C(c2cc(Cl)c(Cl)c(Cl)c2)C(F)(F)F)cc1Br)C(=S)NCC(F)(F)F (stereo not shown) [FA11] |  |  | 0 to 50 | 50 to 100
5 | Cc1cc(/C=C/C(c2cc(Cl)c(Cl)c(Cl)c2)C(F)(F)F)ccc1C(=O)NCC(=O)NCC(F)F (stereo not shown) [FA2] |  |  | 50 to 100 | 50 to 100
6 | O=C(CCNC(=O)c1ccc(/C=C/C(c2cc(Cl)c(Cl)c(Cl)c2)C(F)(F)F)cc1Br)NCC(F)(F)F (stereo not shown) [P1638] | A (50-100) | A (50-100) |  | 
7 | O=C(NCC(=S)NCC(F)(F)F)c1ccc(/C=C/C(c2cc(Cl)c(F)c(Cl)c2)C(F)(F)F)cc1C(F)(F)F (stereo not shown) [P1866] | A (50-100) | A (50-100) |  | 
8 | O=C(CNC(=O)c1ccc(/C=C/C(c2cc(Cl)c(Cl)c(Cl)c2)C(F)(F)F)cc1Br)NCC(F)F (stereo not shown) [FA3] |  |  | 50 to 100 | 50 to 100
9 | C[C@@H](NC(=O)c1ccc(/C=C/C(c2ccc(Br)c(Br)c2)C(F)(F)F)cc1C(F)(F)F)C(=O)NCC(F)(F)F (stereo partly shown) [P660] | A (50-100) | A (50-100) |  | 
10 | O=C(NCC(=S)NCC(F)(F)F)c1ccc(/C=C/C(c2cc(Cl)c(Cl)c(Cl)c2)C(F)(F)F)cc1C(F)(F)F (stereo not shown) [P1559] | A (50-100) | A (50-100) |  | 
11 | C[C@@H](NC(=O)c1ccc(/C=C/C(c2ccc(Cl)c(Cl)c2)C(F)(F)F)cc1Br)C(=O)NCC(F)(F)F (stereo partly shown) [P1806] | A (50-100) | A (50-100) |  | 
12 | O=C(CNC(=O)c1ccc(/C=C/C(c2ccc(Cl)c(Cl)c2)C(F)(F)F)cc1Br)NCC(F)(F)F (stereo not shown) [P1776] | A (50-100) | A (50-100) |  | 
13 | CC(NC(=O)CNC(=O)c1ccc(/C=C/C(c2cc(Cl)c(Cl)c(Cl)c2)C(F)(F)F)cc1C(F)(F)F)C(F)(F)F (stereo not shown) [P1591] | A (50-100) | A (50-100) |  | 
14 | CCNC(=O)[C@@H](C)NC(=O)c1ccc(/C=C/C(c2cc(Cl)c(Cl)c(Cl)c2)C(F)(F)F)cc1C(F)(F)F (stereo partly shown) [P1623] | A (50-100) | A (50-100) |  | 
15 | C[C@@H](NC(=O)c1ccc(/C=C/C(c2ccc(Cl)c([N+](=O)[O-])c2)C(F)(F)F)cc1C(F)(F)F)C(=O)NCC(F)(F)F (stereo partly shown) [P732] | A (50-100) | A (50-100) |  | 
16 | CC(NC(=O)c1ccc(/C=C/C(c2cc(Cl)c(Cl)c(Cl)c2)C(F)(F)F)cc1C(F)(F)F)C(=O)NCCF (stereo not shown) [P1618A, (E)-N-(1-((2-Fluoroethyl)amino)-1-oxopropan-2-yl)-4-(4,4,4-trifluoro-3-(3,4,5-trichlorophenyl)but-1-en-1-yl)-2-(trifluoromethyl)benzamide] | A (50-100) | A (50-100) |  | 
17 | O=C(CNC(=O)c1ccc(/C=C/C(c2cc(Cl)c(Cl)c(Cl)c2)C(F)(F)F)cc1C(F)(F)F)NCC(F)(F)F (stereo not shown) [P1556] | A (50-100) | A (50-100) |  | 
18 | C[C@@H](NC(=O)c1ccc(/C=C/C(c2cc(Cl)c(Br)c(Cl)c2)C(F)(F)F)cc1Br)C(=O)NCC(F)(F)F (stereo partly shown) [FA22] |  |  | 50 to 100 | 50 to 100
19 | C[C@@H](NC(=O)c1ccc(/C=C/C(c2ccc(F)c(C#N)c2)C(F)(F)F)cc1Br)C(=O)NCC(F)(F)F (stereo partly shown) [P802] | A (50-100) | A (50-100) |  | 
20 | C[C@@H](NC(=O)c1ccc(/C=C/C(c2cccc(OC(F)(F)F)c2)C(F)(F)F)cc1C(F)(F)F)C(=O)NCC(F)(F)F (stereo partly shown) [P228] | A (50-100) | A (50-100) |  | 
21 | Cc1cc(C(/C=C/c2ccc(C(=O)N[C@H](C)C(=O)NCC(F)(F)F)c(C(F)(F)F)c2)C(F)(F)F)ccc1F (stereo partly shown) [P1092] | A (50-100) | A (50-100) |  | 
22 | Cc1ccc(C(/C=C/c2ccc(C(=O)N[C@H](C)C(=O)NCC(F)(F)F)c(C(F)(F)F)c2)C(F)(F)F)cc1Cl (stereo partly shown) [P444] | A (50-100) | A (50-100) |  | 

Row | SMILES | BAW Rating [1] | CL Rating [2] | pest or weed control at 50 µg/cm2 [1] [%] | pest or weed control at 50 µg/cm2 [2] [%]
23 | Nc1cc(/C=C/C(c2cc(Cl)c(F)c(Cl)c2)C(F)(F)F)ccc1C(=O)NCC(=O)NCC(F)(F)F (stereo not shown) [FA6] |  |  | 50 to 100 | 50 to 100
24 | CC(NC(=O)c1ccc(/C=C/C(c2cc(Cl)c(Cl)c(Cl)c2)C(F)(F)F)cc1C(F)(F)F)C(=O)NCCC(F)(F)F (stereo not shown) [P1633A] | A (50-100) | A (50-100) |  | 
25 | O=C(NCC(=S)NCC(F)(F)F)c1ccc(/C=C/C(c2cc(Cl)c(Cl)c(Cl)c2)C(F)(F)F)cc1Cl (stereo not shown) [P1558] | A (50-100) | A (50-100) |  | 
26 | C=Cc1cc(/C=C/C(c2cc(Cl)c(Cl)c(Cl)c2)C(F)(F)F)ccc1C(=O)N[C@H](C)C(=O)NCC(F)(F)F (stereo partly shown) [FA17] |  |  | 50 to 100 | 50 to 100
27 | C[C@@H](NC(=O)c1ccc(/C=C/C(c2cc(Cl)c(Cl)c(Cl)c2)C(F)(F)C(F)(F)F)cc1C(F)(F)F)C(=O)NCC(F)(F)F (stereo partly shown) [P1601] | A (50-100) | A (50-100) |  | 
28 | C[C@@H](NC(=O)c1ccc(/C=C/C(c2cc(Br)cc(Br)c2)C(F)(F)F)cc1C(F)(F)F)C(=O)NCC(F)F (stereo partly shown) [P2038] | A (50-100) | A (50-100) |  | 
29 | C[C@@H](NC(=O)c1ccc(/C=C/C(c2cc(Cl)cc(Br)c2)C(F)(F)F)cc1C(F)(F)F)C(=O)NCC(F)(F)F (stereo partly shown) [P588] | A (50-100) | A (50-100) |  | 
30 | C[C@@H](NC(=O)c1ccc(/C=C/C(c2ccc(Cl)c([N+](=O)[O-])c2)C(F)(F)F)cc1Br)C(=O)NCC(F)(F)F (stereo partly shown) [P730] | A (50-100) | A (50-100) |  | 
31 | Cc1cc(C(/C=C/c2ccc(C(=O)N[C@H](C)C(=O)NCC(F)(F)F)c(C(F)(F)F)c2)C(F)(F)F)cc(Cl)c1Cl (stereo partly shown) [FA20] |  |  | 50 to 100 | 50 to 100
32 | C[C@@H](NC(=O)c1ccc(/C=C/C(c2cc(Cl)cc(Cl)c2)C(F)(F)C(F)(F)F)cc1C(F)(F)F)C(=O)NCC(F)(F)F (stereo partly shown) [P1693] | A (50-100) | A (50-100) |  | 
33 | Cc1cc(/C=C/C(c2cc(Cl)c(Cl)c(Cl)c2)C(F)(F)F)ccc1C(=S)NCC(=O)NCC(F)(F)F (stereo not shown) [P1564] | A (50-100) | A (50-100) |  | 
34 | CC(NC(=O)CNC(=O)c1ccc(/C=C/C(c2cc(Cl)c(Cl)c(Cl)c2)C(F)(F)F)cc1Br)C(F)(F)F (stereo not shown) [P1589] | A (50-100) | A (50-100) |  | 
35 | O=C(CNC(=O)c1ccc(/C=C/C(c2ccc(Cl)c(Cl)c2)C(F)(F)F)cc1)NCC(F)(F)F (stereo not shown) [P1781] | A (50-100) | A (50-100) |  | 
36 | CC(F)(F)CNC(=O)C(C)(C)NC(=O)c1ccc(/C=C/C(c2cc(Cl)c(Cl)c(Cl)c2)C(F)(F)F)cc1Br (stereo not shown) [FA23] |  |  | 50 to 100 | 50 to 100
37 | C[C@@H](NC(=O)c1ccc(/C=C/C(c2cc(Br)cc(Br)c2)C(F)(F)F)cc1Br)C(=O)NCC(F)F (stereo partly shown) [P2036] | A (50-100) | A (50-100) |  | 
38 | Fc1c(Cl)cc(C(/C=C/c2ccc(C(=S)NCC(=S)NCC(F)(F)F)c(Br)c2)C(F)(F)F)cc1Cl (stereo not shown) [P14] | B (More than 0-Less than 50) | A (50-100) |  | 
39 | CCNC(=O)[C@@H](C)NC(=O)c1ccc(/C=C/C(c2cc(Cl)c(Cl)c(Cl)c2)C(F)(F)F)cc1Br (stereo partly shown) [P1621] | A (50-100) | A (50-100) |  | 
40 | CCNC(=O)[C@@H](C)NC(=O)c1ccc(/C=C/C(c2cc(Cl)c(Cl)c(Cl)c2)C(F)(F)F)cc1C (stereo partly shown) [P1624] | A (50-100) | A (50-100) |  | 
41 | C[C@@H](NC(=O)c1ccc(/C=C/C(c2cc(Br)cc(Br)c2)C(F)(F)F)cc1C(F)(F)F)C(=O)NCCC(F)(F)F (stereo partly shown) [P2058] | A (50-100) | A (50-100) |  | 
42 | Cc1cc(C(/C=C/c2ccc(C(=O)N[C@H](C)C(=O)NCC(F)(F)F)c(Br)c2)C(F)(F)F)cc(C)c1F (stereo partly shown) [P514] | A (50-100) | A (50-100) |  | 
43 | O=C(CNC(=O)c1ccc(/C=C/C(c2cc(F)cc(C(F)(F)F)c2)C(F)(F)F)cc1Br)NCC(F)(F)F (stereo not shown) [P1340] | A (50-100) | A (50-100) |  | 
44 | C[C@@H](NC(=O)c1ccc(/C=C/C(c2cc(Cl)c(Cl)c(Cl)c2)C(F)(F)F)cc1Br)C(=O)NCCF (stereo partly shown) [P1616] | A (50-100) | A (50-100) |  | 
